Measurements: patent US11066414B2, “Cot modulators and methods of use thereof” (Gilead Sciences, Inc., priority 2015, dated 2021)
Like-named read-outs stand apart in the source and are kept apart here.

Columns and labels:
TNFα = test: Cot Monocyte TNFα Cell Based Assay
Human Cot = Human Cot (Homo sapiens (Human), UniProt P41279); test: High Throughput Cot Biochemical Assay; conditions: Cot HTRF (TR-FRET) biochemical assay
[1] = Homo sapiens, Monocyte, read-out: EC50 TNF, LPS-stimulated human monocytes, TNFα
[2] = read-out: EC50 TNF, LPS-stimulated human monocytes, TNFα

Sequence of Human Cot (P41279 30-397): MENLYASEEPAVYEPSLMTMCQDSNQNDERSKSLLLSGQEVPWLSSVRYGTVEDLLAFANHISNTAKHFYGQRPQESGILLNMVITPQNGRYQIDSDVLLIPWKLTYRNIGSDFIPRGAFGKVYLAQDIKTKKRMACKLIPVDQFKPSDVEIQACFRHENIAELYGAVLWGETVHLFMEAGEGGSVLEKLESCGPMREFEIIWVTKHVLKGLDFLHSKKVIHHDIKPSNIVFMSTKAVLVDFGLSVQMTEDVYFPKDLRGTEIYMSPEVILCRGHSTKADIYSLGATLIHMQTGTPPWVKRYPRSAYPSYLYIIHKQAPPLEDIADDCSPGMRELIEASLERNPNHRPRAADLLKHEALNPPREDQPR

EC50 (TNFα; [1]) [nM]	IC50 (Human Cot; IC50 HTRF) [nM]	EC50 (TNFα; [2]) [nM]	IC50 (Human Cot; read-out: IC50 HTRF) [nM]	Structure (SMILES)
437	30	–	–	Cc1ccc([C@H](Nc2cc(Cl)c3ncc(C#N)c(NCC(C)(C)C)c3c2)c2cn(C3(C(F)(F)F)CC3)nn2)c(F)n1 [Example 688, (S)-8-chloro-6-(((2-fluoro-6-methylpyridin-3-yl)(1-(1-(trifluoromethyl)-cyclopropyl)-1H-1,2,3-triazol-4-yl)methyl)amino)-4-(neopentylamino)quinoline-3-carbonitrile]
–	–	81	9	Cc1ccc([C@H](Nc2cc(C#N)c3ncc(C#N)c(NCC(C)(C)C)c3c2)c2cn(C3(C(F)(F)F)CC3)nn2)c(C)n1 [Example 689, (S)-6-(((2,6-dimethylpyridin-3-yl)(1-(1′-(trifluoromethyl)cyclopropyl)-1H-1,2,3-triazol-4-yl)methyl)amino)-4-(neopentylamino)quinoline-3,8-dicarbonitrile]
250	21	–	–	Cc1ccc([C@H](Nc2cc(C#N)c3ncc(C#N)c(NCC(C)(C)C)c3c2)c2cn(C3(C(F)(F)F)CC3)nn2)c(F)n1 [Example 690, (S)-6-(((2-fluoro-6-methylpyridin-3-yl)(1-(1-(trifluoromethyl)cyclopropyl)-1H-1,2,3-triazol-4-yl)methyl)amino)-4-(neopentylamino)quinoline-3,8-dicarbonitrile]
66	6	–	–	CC(C)(C)CNc1c(C#N)cnc2c(Cl)cc(N[C@H](c3cn(C4(C5CC5)CC4)nn3)c3cccc4ncccc34)cc12 [Example 691, (S)-6-(((1-([1,1′-bi(cyclopropan)]-1-yl)-1H-1,2,3-triazol-4-yl)(quinolin-5-yl)methyl)amino)-8-chloro-4-(neopentylamino)quinoline-3-carbonitrile]
–	–	38	3	CC(C)(C)CNc1c(C#N)cnc2c(Cl)cc(N[C@H](c3cn([C@@H]4C[C@@H]4F)nn3)c3cccc4ncccc34)cc12 [Example 692, 8-chloro-6-(((SH l-((lR,2S)-2-fluorocyclopropyl)-1H-1,2,3-triazol-4-yl)(quinolin-5-yl)methyl)amino)-4-(neopentylamino)quinoline-3-carbonitrile]
84	7	–	–	CC(C)(C)CNc1c(C#N)cnc2c(Cl)cc(N[C@H](c3cn(C(C)(C)CF)nn3)c3cccc4ncccc34)cc12 [Example 694, (S)-8-chloro-6-(((1-(1-fluoro-2-methylpropan-2-yl)-1H-1,2,3-triazol-4-yl)(quinolin-5-yl)methyl)amino)-4-(neopentylamino)quinoline-3-carbonitrile]
684	27	–	–	CC(C)(C)CNc1c(C#N)cnc2c(Cl)cc(N[C@@H](c3ccc4cccnc4c3)c3cn(C4(C(F)(F)F)CC4)nn3)cc12 [Example 698, (S)-8-chloro-4-(neopentylamino)-6-((quinolin-7-yl(1-(1-(trifluoromethyl)cyclopropyl)-1H-1,2,3-triazol-4-yl)methyl)amino)quinoline-3-carbonitrile]
–	–	179	2	CC(C)(C)CNc1c(C#N)cnc2c(C#N)cc(N[C@H](c3cn(C4(C(F)(F)F)CC4)nn3)c3cccc4c(=O)[nH]ccc34)cc12 [Example 700, (S)-4-(neopentylamino)-6-(((1-oxo-1,2-dihydroisoquinolin-5-yl)(4-(1-1-(trifluoromethyl)-cyclopropyl)-1H-1,2,3-triazol-4-yl)methyl)amino)quinoline-3,8-dicarbonitrile]
188	4	–	–	Cc1ncsc1[C@H](Nc1cc(Cl)c2ncc(C#N)c(NCC(C)(C)C)c2c1)c1cn(C2(C3CC3)CC2)nn1 [Example 702, (R)-6-(((1-([1,1′-bi(cyclopropan)]-1-yl)-1H-1,2,3-triazol-4-yl)(4-methylthiazol-5-yl)methyl)amino)-8-chloro-4-(neopentylamino)quinoline-3-carbonitrile]
22	2	–	–	CC(C)(C)CNc1c(C#N)cnc2c(C#N)cc(N[C@H](c3cn(C4(C5CC5)CC4)nn3)c3cccc4cnccc34)cc12 [Example 703, (S)-6-(((1-([1,1′-bi(cyclopropan)]-1-yl)-1H-1,2,3-triazol-4-yl)(isoquinolin-5-yl)methyl)amino)-4-(neopentylamino)quinoline-3,8-dicarbonitrile]
230	16	–	–	Cc1nc(F)ccc1[C@H](Nc1cc(Cl)c2ncc(C#N)c(NCC(C)(C)C)c2c1)c1nnn(C2(C(F)F)CC2)c1I [Example 707, (S)-8-chloro-6-(((1-(1-(difluoromethyl)cyclopropyl)-5-iodo-1H-1,2,3-triazol-4-yl)(6-fluoro-2-methylpyridin-3-yl)methyl)amino)-4-(neopentylamino)quinoline-3-carbonitrile]
176	6	–	–	CC(C)(C)CNc1c(C#N)cnc2c(C#N)cc(N[C@@H](c3ccc4cccnc4c3)c3cn(C4(C(F)F)CC4)nn3)cc12 [Example 708, (S)-6-(((1-(1-(difluoromethyl)cyclopropyl)-1H-1,2,3-triazol-4-yl)(quinolin-7-yl)methyl)amino)-4-(neopentylamino)quinoline-3,8-dicarbonitrile]
187	17	–	–	CC(C)(C)CNc1c(C#N)cnc2c(Cl)cc(N[C@H](c3cn(C4(C(F)(F)F)CC4)nn3)c3ccc(Cl)c4ncccc34)cc12 [Example 709, (S)-8-chloro-6-(((8-chloroquinolin-5-yl)(1-(1-(trifluoromethyl)cyclopropyl)-1H-1,2,3-triazol-4-yl)methyl)amino)-4-(neopentylamino)quinoline-3-carbonitrile]
148	5	–	–	CC(C)(C)CNc1c(C#N)cnc2c(C#N)cc(N[C@H](c3cn(C4(C(F)(F)F)CC4)nn3)c3ccc(C#N)c4ncccc34)cc12 [Example 710, (S)-6-(((8-cyanoquinolin-5-yl)(1-(1-(trifluoromethyl)cyclopropyl)-1H-1,2,3-triazol-4-yl)methyl)amino)-4-(neopentylamino)quinoline-3,8-dicarbonitrile]
32	2	–	–	[2H]C([2H])([2H])n1ccc2c([C@H](Nc3cc(Cl)c4ncc(C#N)c(NCC(C)(C)C)c4c3)c3cn(C45CC(C4)C5)nn3)cccc2c1=O [Example 711, (S)-6-(((1-(bicyclo[1.1.1]pentan-1-yl)-1H-1,2,3-triazol-4-yl)(2-(methyl-d3)-1-oxo-1,2-dihydroisoquinolin-5-yl)methyl)amino)-8-chloro-4-(neopentylamino)quinoline-3-carbonitrile]
21	2	–	–	Cn1ccc2c([C@H](Nc3cc(Cl)c4ncc(C#N)c(NCC(C)(C)C)c4c3)c3cn(C45CC(C4)C5)nn3)cccc2c1=O [Example 713, (S)-6-(((1-(bicyclo[1.1.1]pentan-1-yl)-1H-1,2,3-triazol-4-yl)(2-methyl-1-oxo-1,2-dihydroisoquinolin-5-yl)methyl)amino)-8-chloro-4-(neopentylamino)quinoline-3-carbonitrile]
57	6	–	–	Cn1ccc2c([C@H](Nc3cc(Cl)c4ncc(C#N)c(NCC(C)(C)C)c4c3)c3cn(C4CCN(C(C)(C)C)CC4)nn3)cccc2c1=O [Example 714, (S)-6-(((1-(1-(tert-butyl)piperidin-4-yl)-1H-1,2,3-triazol-4-yl)(2-methyl-1-oxo-1,2-dihydroisoquinolin-5-yl)methyl)amino)-8-chloro-4-(neopentylamino)quinoline-3-carbonitrile]
91	3	–	–	Cc1nc(F)ccc1[C@H](Nc1cc(Cl)c2ncc(C#N)c(NCC(C)(C)C(F)(F)F)c2c1)c1cn(C(C)(C)C)nn1 [Example 715, (S)-6-(((1-(tert-butyl)-1H-1,2,3-triazol-4-yl)(6-fluoro-2-methylpyridin-3-yl)methyl)amino)-8-chloro-4-((3,3,3-trifluoro-2,2-dimethylpropyl)amino)quinoline-3-carbonitrile]
54	2	–	–	Cc1nc(F)ccc1[C@H](Nc1cc(Cl)c2ncc(C#N)c(NCC(C)(C)C)c2c1)c1cn(C2CC2)nn1 [Example 716, (S)-8-chloro-6-(((1-cyclopropyl-1H-1,2,3-triazol-4-yl)(6-fluoro-2-methylpyridin-3-yl)methyl)amino)-4-(neopentylamino)quinoline-3-carbonitrile]
100	8	–	–	Cc1ccc([C@H](Nc2cc(Cl)c3ncc(C#N)c(NCC(C)(C)C)c3c2)c2cn(C3(C(F)F)CC3)nn2)c(C)n1 [Example 717, (S)-8-chloro-6-(((1-(1-(difluoromethyl)cyclopropyl)-1H-1,2,3-triazol-4-yl)(2,6-dimethylpyridin-3-yl)methyl)amino)-4-(neopentylamino)quinoline-3-carbonitrile]
112	9	–	–	Cc1nc(Cl)ccc1[C@H](Nc1cc(Cl)c2ncc(C#N)c(NCC(C)(C)C)c2c1)c1cn(C2(C(F)F)CC2)nn1 [Example 718, (S)-8-chloro-6-(((6-chloro-2-methylpyridin-3-yl)(1-(1-(difluoromethyl)cyclopropyl)-1H-1,2,3-triazol-4-yl)methyl)amino)-4-(neopentylamino)quinoline-3-carbonitrile]
24	2	–	–	Cc1nc(F)ccc1[C@H](Nc1cc(Cl)c2ncc(C#N)c(NCC(C)(C)C(F)(F)F)c2c1)c1cn(C23CC(C2)C3)nn1 [Example 719, (S)-6-(((1-(bicyclo[1.1.1]pentan-1-yl)-1H-1,2,3-triazol-4-yl)(6-fluoro-2-methylpyridin-3-yl)methyl)amino)-8-chloro-4-((3,3,3-trifluoro-2,2-dimethylpropyl)amino)quinoline-3-carbonitrile]
35	2	–	–	Cc1nc(F)ccc1[C@H](Nc1cc(Cl)c2ncc(C#N)c(NCC(C)(C)C(F)(F)F)c2c1)c1cn(C2(C)CC2)nn1 [Example 720, (S)-8-chloro-6-(((6-fluoro-2-methylpyridin-3-yl)(1-(1-methylcyclopropyl)-1H-1,2,3-triazol-4-yl)methyl)amino)-4-((3,3,3-trifluoro-2,2-dimethylpropyl)amino)-quinoline-3-carbonitrile]
